The source of these data is PMC6661824, “α-Glucosidase inhibitors from a mangrove associated fungus, Zasmidium sp. strain EM5-10” (BMC Chemistry, 2019).

The target of assay [1] is α-Glucosidase from baker's yeast. Nature of the assay: α-Glucosidase inhibitory assay (PNP-G substrate). It is filed as biochemical, S. cerevisiae. On the procedure: (§1) The α-glucosidase inhibitory assay was performed according to the protocol established in our laboratory. α-Glucosidase from baker’s yeast purchased from Sigma Chemical Co. The inhibition was measured spectrophotometrically at pH 7.0 and 37 °C employing 2 mM p-nitrophenyl α-D-glucopyranoside (PNP-G) as a substrate and 32 mU/mL of the enzyme, in 100 mM potassium phosphate buffer (enzyme stock). […] The absorbance (A) of 4-nitrophenol released by the hydrolysis of PNP-G was measured at 400 nm by Synergy HT Bio Tek microplate spectrophotometer. […] After incubating, 150 µL of the substrate was added and further incubated for 20 min at 37 °C. All assays are performed in 96-well microplates (Greiner bio-one 655101) in duplicate. The activity of samples was calculated as a percentage in comparison to a control (DMSO or MeOH instead of sample solution) according to the following equation: %Inhibition=ΔAcontrol-ΔAsample/ΔAcontrol×100%
The concentration required to inhibit activity of the enzyme by 50% (IC50) was calculated by regression analysis.

Assay [2] has as its system α-glucosidase. Nature of the assay: Kinetic analysis of α-glucosidase inhibition (Lineweaver–Burk plots). It is filed as biochemical, S. cerevisiae. As to conditions: for type of inhibition against α-glucosidase: Lineweaver–Burk plots; for Vmax: maximum reaction velocity of α-glucosidase in presence of inhibitor. As for the experimental part: Kinetic analysis was carried out to understand the interaction of tripalmitin with α-glucosidase. Lineweaver–Burk plots were constructed using different concentrations of substrate and tripalmitin.
as §1

[3] abbreviates: standards purchased from Sigma-Aldrich.

The IC50 is the concentration that gives 50% inhibition. As usually defined, the Vmax is the rate approached at saturating substrate.

Several values for one entry are separate records, joined by “and”; a condition that tells them apart may be missing. Equal entries are not always repeated.

Consider `CCCCCCCC/C=C\CCCCCCCC(=O)O` [oleic acid], for which the IC50 in assay [1] (pH 7.0, 37 °C, 2 mM PNP-G) came out at 230 nM.

For the compound `CCCCCCCCCCCCCCCC(=O)OCC(COC(=O)CCCCCCCCCCCCCCC)OC(=O)CCCCCCCCCCCCCCC` [Compound 1, tripalmitin], in assay [1] (pH 7.0, 37 °C, 2 mM PNP-G), the IC50 was 3750 nM and 3670 nM; the “IC50 α-glucosidase” value worked out at 3.02 µg/mL. Moreover, in assay [1] (setting [3]), the IC50 turned out to be 3200 nM. Also, in assay [2], the “type of inhibition against α-glucosidase” value is “mixed inhibitor” and the Vmax was determined as 0.0027 ± 0.0001 mmol/L/min.

Take `CCCCCCCCCCCCCCCCCC(=O)O` [stearic acid]: the IC50 in assay [1] (pH 7.0, 37 °C, 2 mM PNP-G) was 810 nM.

Consider `OCC(O)CO` [glycerol], for which the “α-glucosidase inhibition (result in words)” value in assay [1] (obtained from methanolysis reaction) is “inactive”.

For the compound `CCCCCCCC/C=C\CCCCCCCC(=O)OCC(COC(=O)CCCCCCC/C=C\CCCCCCCC)OC(=O)CCCCCCC/C=C\CCCCCCCC` [triolein], the IC50 in assay [1] (setting [3]) was found to be 1520 nM.

Take `CCCCCCCCCCCCCCCC(=O)OC` [methyl palmitate]: in assay [1] (pH 7.0, 37 °C, 2 mM PNP-G), the IC50 was found to be 460 nM and the “IC50 α-glucosidase” value was determined as 0.13 µg/mL. Further, in assay [2], the “type of inhibition against α-glucosidase” value is given as “mixed inhibitors” and the Vmax stood at 0.0024 ± 0.0002 mmol/L/min.
